This passage reports Activity results from ChEMBL document CHEMBL1221181, “Virtual and biomolecular screening converge on a selective agonist for GPR30” (Nat Chem Biol, 2006).

The source made the active and inactive calls. The rule behind the calls is not given here.

Test [1] has as its target Estrogen receptor beta (Homo sapiens) (UniProt Q92731). Description: Displacement of E2-Alexa633 from GFP-tagged ERbeta expressed in COS7 cells at 1 uM by FACS. The test is classed as cell-based. The settings on record: COS-7. (In general: In flow cytometry, cells or beads pass a laser one at a time.)
Test [2] shares this target. Description: Agonist activity at GFP-tagged ERbeta expressed in COS7 cells assessed as PI3K activation at 10 nM by PIP3 nuclear accumulation assay. The test is classed as functional, cell-based. The settings on record: COS-7.

Chain of Estrogen receptor beta (Homo sapiens) (Q92731 whole entry): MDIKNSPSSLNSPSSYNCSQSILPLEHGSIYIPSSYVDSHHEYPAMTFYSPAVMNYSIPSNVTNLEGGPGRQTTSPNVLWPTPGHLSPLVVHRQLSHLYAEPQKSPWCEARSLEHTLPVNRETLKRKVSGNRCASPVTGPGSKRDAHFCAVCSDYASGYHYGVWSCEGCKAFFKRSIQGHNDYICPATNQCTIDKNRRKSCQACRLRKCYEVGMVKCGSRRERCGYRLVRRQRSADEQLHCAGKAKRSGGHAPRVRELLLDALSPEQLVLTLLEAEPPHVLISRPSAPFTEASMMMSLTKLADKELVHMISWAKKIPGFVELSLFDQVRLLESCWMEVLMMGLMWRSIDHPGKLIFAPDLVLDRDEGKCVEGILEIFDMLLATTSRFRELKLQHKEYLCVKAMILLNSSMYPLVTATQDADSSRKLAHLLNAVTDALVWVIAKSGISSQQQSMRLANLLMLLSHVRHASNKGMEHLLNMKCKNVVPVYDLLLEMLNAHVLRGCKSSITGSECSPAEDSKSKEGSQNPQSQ

With `CC(=O)c1ccc2c(c1)[C@@H]1C=CC[C@@H]1[C@H](c1cc3c(cc1Br)OCO3)N2`, the outcome in test [1] and in test [2] was inactive.
